Laboratory results reported in ChEMBL document CHEMBL1125480, “Studies on antidiabetic agents. 11. Novel thiazolidinedione derivatives as potent hypoglycemic and hypolipidemic agents” (1992).

What was measured:
Assay type in all cases: functional
Mus musculus [1] = organism: Mus musculus; test: (§1) Effective dose to reduce 25% of glucose levels in blood; conditions: Mus musculus, Blood
Mus musculus [2] = organism: Mus musculus; test: Effective dose to reduce 25% of triglyceride levels in plasma
Mus musculus [3] = organism: Mus musculus; test: Compound was tested for maximum reduction in blood glucose levels in KKA mice at a dosage of 0.01% in diet
Mus musculus [4] = organism: Mus musculus; test: Compound was tested for maximum reduction in blood glucose levels in KKA mice at a dosage of 0.05% in diet
Mus musculus [5] = organism: Mus musculus; test: Compound was tested for maximum reduction in plasma triglyceride levels in KKA mice at a dosage of 0.01% in diet
Mus musculus [6] = organism: Mus musculus; test: Compound was tested for maximum reduction in plasma triglyceride levels in KKA mice at a dosage of 0.05% in diet
[7] = as §1; conditions: Mus musculus
Mus musculus [8] = organism: Mus musculus; test: Maximum reduction in blood glucose levels in KKA mice at a dosage of 0.001% in diet
Mus musculus [9] = organism: Mus musculus; test: Maximum reduction in blood glucose levels in KKA mice at a dosage of 0.005% in diet
Mus musculus [10] = organism: Mus musculus; test: Maximum reduction in plasma triglyceride levels in KKA mice at a dosage of 0.001% in diet
Mus musculus [11] = organism: Mus musculus; test: Maximum reduction in plasma triglyceride levels in KKA mice at a dosage of 0.005% in diet

O=C1NC(=O)C(Cc2ccc(OCCc3coc(-c4ccccc4)n3)cc2)S1 (configuration not stated)
ED25 (Mus musculus [1]): 0.3 mg/kg/day
ED25 (Mus musculus [2]): 0.5 mg/kg/day
Reduction (Mus musculus [3]): 41%
Reduction (Mus musculus [4]): 58%
Reduction (Mus musculus [5]): 51%
Reduction (Mus musculus [6]): 68%

Cc1oc(-c2ccco2)nc1CCOc1ccc(CC2SC(=O)NC2=O)cc1 (configuration not stated)
ED25 [7]: 0.4 mg/kg/day
ED25 (Mus musculus [2]): 0.9 mg/kg/day
Reduction (Mus musculus [8]): 50%
Reduction (Mus musculus [9]): 50%
Reduction (Mus musculus [10]): 41%
Reduction (Mus musculus [11]): 69%
